This note sets out measurements from patent US7034020B2, “Derivatives of butyric acid and uses thereof” (The University of Arkansas for Medical Science, priority 1999, dated 2006).

The subject of one data set is lymph node CD4+ T cells. As to the kind of experiment: Ovalbumin-stimulated proliferation of lymph node CD4+ T cells from treated mice. In kind it is in vivo, C57BL/10 mice. The following applies: MEB 0.15 mmol ip on day 2 or day 3; cells restimulated with ovalbumin in vitro. The procedure:
C57BL/10 mice are injected ip with ovalbumin/CFA on day 0, followed by a single ip injection of saline or MEB (0.15 mmol) on Days 2 or 3. The mice are reimmunized with ovalbumin sc on Day 10. Isotype-specific anti-ovalbumin antibody generated during the primary immune response (FIG. 4A), and the secondary immune response (FIG. 4B) are measured in the serum at day 10 and day 16, respectively. (FIG. 4C). […] This experiment was repeated, and the proliferation data represents the means of the two experiments.
If the butyrate derivatives suppressed antibody production to a thymus-dependent antigen by inactivating the antigen-specific CD4^+ T cells required for B cell help, then the butyrate derivatives need only be present during an early stage during which the CD4^+ T cells would otherwise be activated by antigen. […] On day 10 the mice receive 100 μg ovalbumin in conjunction with incomplete Freund's adjuvant sc at the base of the tail. After an additional 7 days, cells from the periaortic and mesenteric lymph nodes were enriched for CD4^+ T cells by negative selection (Griffin et al., 1998). […] Proliferation is measured on day 4 by assessing incorporation of [^3H]-TdR after a 12 hour pulse.

In data set [1] the test system is KLH-specific Th1 cells (clone D3). The experiment in a line: Th1 cell anergy induction in vitro (primary culture with MEB, secondary culture restimulation). Particulars: for Proliferation in antigen-stimulated secondary cultures: secondary: KLH. The data set is classed as cell-based, C57BL/10 mice. The procedure:
KLH-specific Th1 cells (clone D3) are incubated in primary cultures with (FIG. 5A) MEB (1 mM) and/or IL-2 (10% Con A CM), or (FIG. 5B) MEB (1 mM) and/or KLH (50 μg/ml). After 2 days, the Th1 cells are isolated from the primary cultures, rested, and then re-incubated in secondary cultures stimulated with antigen (KLH, 50 μg/ml) or IL-2 (10% Con A CM).
Th1 cells are treated with MEB in the presence or absence of antigen or exogenous IL-2.
The ability of the butyrate derivative to induce Th1 cell anergy is examined using a protocol previously developed for n-butyrate-induced T cell tolerance (Gilbert and Weigle, 1993). Briefly, Th1 cells are incubated in primary cultures at 2.5×10^5 cells/ml, along with MEB (1 mM), KLH (50 μg/ml), and 5×10^6/ml irradiated syngeneic spleen cells as APC. Alternatively, the Th1 cells are incubated in primary cultures containing MEB and IL-2 (10% Con A CM). Control primary cultures receive MEB and APC, but no antigen or IL-2. After incubation for 24 h at 37° C., the cells in the primary cultures are harvested, washed free of MEB, and reincubated at 2.5×10^5 ml in secondary cultures without MEB. The Th1 cells in the secondary cultures are stimulated with 10% IL-2-cQntaining Con A CM, or with 5×10^6/ml irradiated syngeneic spleen cells as APC, and KLH. After 2 days in the secondary cultures, the Th1 cells are assessed for proliferation (pulsed with [^3H]-TdR for 12 h).

Data set [2] relates to KLH-specific Th1 cells (clone C3). As to the kind of experiment: Cell cycle analysis (DNA content) of IL-2-stimulated Th1 cells. In kind it is cell-based, C57BL/10 mice. The procedure: KLH-specific, Th1 cells (clone C3) are left unstimulated (resting), or are stimulated with IL-2 (10% Con A CM) in the presence or absence of MEB (1 mM). The Th1 cells are collected after 48 hours, and assayed for DNA content.
KLH-specific Th1 cells (clone C3) were stimulated with IL-2 (10% Con A CM) at the initiation of culture, and then again at 24, 48, and 96 hours (FIG. 8A). Some cultures also received a single dose of MEB (1 mM) at times 0, 15, 24 or 39 hours after the initiation of culture (FIGS. 8B, 8C, 8D, and 8E, respectively). The Th1 cells were collected at 0, 48, 72, 96 or 120 hours after the initiation of culture and assayed for DNA content.
If the ability of butyrate and its derivatives to induce Th1 cell tolerance is linked to their ability to block antigen-activated Th1 cells in G1, their therapeutic importance is enhanced if MEB induces G1 cell cycle blockade regardless of when in the cell cycle the compound is added. MEB is added to cultures of IL-2-stimulated Th1 at various time points. In the absence of MEB, it is shown that approximately 50% of IL-2-activated Th1 cells have exited G1 by Day 2 (FIG. 8). I n contrast, if MEB is added at the initiation of culture, over 97% of the IL-2-stimulated Th1 cells remain in G0/G1 for the duration of the experiment (120 hours). […] If MEB is added 24 hours instead of 15 hours after IL-2 stimulation, 89% of the Th1 cells are blocked in G1 phase by 48 h, and the cell cycle profile looks very similar to that obtained if MEB is added at the initiation of culture. Finally, even if MEB is added as late as 39 hours after IL-2 stimulation, 87% of the Th1 cells (as compared to 49.9% of controls) are sequestered in G0/G1 when DNA content is measured at 72 hours.
To examine DNA content, Th1 cells were fixed in prechilled 70% ethanol overnight at 4° C. The fixed Th1 cells were next washed in PBS, resuspended in 1 ml of staining buffer containing RNase (1 mg/ml; Sigma) and propidium iodide (50 μg/ml; Sigma), incubated for 20 minutes in the dark at 20° C., and analyzed by flow cytometry using a FACSCalibur (Becton Dickinson, Moutain View, Calif.). The data were analyzed using the ModFit DNA analysis program (Verity Software House).

Data set [3] is described as follows: Toxicity in mice treated with MEB. The data set is classed as in vivo. Particulars: dose approximated 0.7 g/kg/day.

Turning to `CCCC(=O)OCCN1CCOCC1.Cl` [MEB, 2-(4-Morpholinyl)ethyl butyrate hydrochloride], in the data set with lymph node CD4+ T cells, the “Antigen-specific proliferation of CD4+ T cells from antigen-primed mice” value is “significant loss of antigen-specific proliferation”. Moreover, the “Proliferation in antigen-stimulated secondary cultures” value in data set [1] (primary culture: IL-2 and MEB (1 mM)) is “retain their ability to proliferate to antigen”; in data set [1] (primary culture: MEB alone (1 mM)), “retain their ability to proliferate in response to antigen stimulation”; in data set [1] (primary culture: antigen (KLH) and MEB (1 mM)), “lose their ability to proliferate”. In data set [1] (primary culture: antigen (KLH) and MEB (1 mM), secondary: IL-2), the “Proliferation in secondary cultures stimulated with exogenous IL-2” value is given as “can still proliferate”. Further, the “Th1 cells remaining in G0/G1” value in data set [2] (IL-2 (10% Con A CM) plus MEB 1 mM, 48 hours) is given as “essentially all”. The “IL-2-stimulated Th1 cells in G0/G1” value in data set [2] (MEB 1 mM added 15 hours after IL-2, by 96 hours (control 56.9%)) is recorded as 79.3%; in data set [2] (MEB 1 mM added 39 hours after IL-2, at 72 hours (control 49.9%)), 87%; in data set [2] (MEB 1 mM added at initiation of culture, for duration of experiment (120 hours)) it was “over 97%”. In data set [2] (MEB 1 mM added 24 hours after IL-2, by 48 h), the “IL-2-stimulated Th1 cells in G1” value stood at 89%. Also, in data set [3], the Toxicity entry is reported as “No toxicity”.
